Assay results reported in the supplement of paper PMC10733146.

Assays:
Test in all cases: viability relative to DMSO control (fraction); higher = less drug effect (more viable cells)
Details in all cases: 48 h
[1] = compound: c1cn2cc(-c3ccc4cn[nH]c4c3)nc(Nc3ccc(N4CCOCC4)cc3)c2n1 [Entospletinib]
Procedure, shortened: (§1)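 Primary mononuclear tumour cells (Ficoll-isolated from blood or bone marrow, or processed lymph node; fresh or cryopreserved) were plated at 4 × 10^4 cells per well in 384-well plates with pre-plated compounds at five concentrations, one well each. Medium was RPMI-1640 with penicillin/streptomycin, L-glutamine and human serum, at 37 °C and 5% CO2 for 48 h. Viability was read as CellTiter-Glo luminescence relative to the median of 16 inner DMSO wells.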

[2] = compound: O=C(Nc1nc2cccc(-c3ccc(CN4CCS(=O)(=O)CC4)cc3)n2n1)C1CC1 [Filgotinib]
Procedure, shortened: as §1

[3] = compound: CC(C)N(CCCNC(=O)Nc1ccc(C(C)(C)C)cc1)C[C@H]1O[C@@H](n2cc(Br)c3c(N)ncnc32)[C@H](O)[C@@H]1O [SGC 0946]
Procedure, shortened: as §1

[4] = compound: CO[C@H]1C[C@@H]2CC[C@@H](C)[C@@](O)(O2)C(=O)C(=O)N2CCCC[C@H]2C(=O)O[C@H]([C@H](C)C[C@@H]2CC[C@@H](OCCO)[C@H](OC)C2)CC(=O)[C@H](C)/C=C(\C)[C@@H](O)[C@@H](OC)C(=O)[C@H](C)C[C@H](C)/C=C/C=C/C=C/1C [Everolimus]
Procedure, shortened: as §1

[5] = compound: CC(=O)c1c(C)c2cnc(Nc3ccc(N4CCNCC4)cn3)nc2n(C2CCCC2)c1=O [Palbociclib]
Procedure, shortened: as §1

[6] = compound: CCN(c1cc(-c2ccc(CN3CCOCC3)cc2)cc(C(=O)NCc2c(C)cc(C)[nH]c2=O)c1C)C1CCOCC1 [EPZ-6438]
Procedure, shortened: as §1

[7] = compound: O=C(Nc1ccc2[nH]nc(-c3ccncc3)c2c1)[C@@H]1CCN(CC(=O)N2CCN(c3ccc(-c4ncccn4)cc3)CC2)C1
Procedure, shortened: as §1

[8] = compound: COc1cc([C@@H]2c3cc4c(cc3[C@@H](O[C@@H]3O[C@@H]5CO[C@@H](C)O[C@H]5[C@H](O)[C@H]3O)[C@H]3COC(=O)[C@H]23)OCO4)cc(OC)c1O [Etoposide]
Procedure, shortened: as §1

[9] = compound: O=C(O)CCCc1ccc(N(CCCl)CCCl)cc1 [Chlorambucil]
Procedure, shortened: as §1

[10] = compound: CC1(C)CCC(CN2CCN(c3ccc(C(=O)NS(=O)(=O)c4ccc(NCC5CCOCC5)c([N+](=O)[O-])c4)c(Oc4cnc5[nH]ccc5c4)c3)CC2)=C(c2ccc(Cl)cc2)C1 [Venetoclax]
Procedure, shortened: as §1

[11] = compound: C[C@H](Nc1ncnc2nc[nH]c12)c1cc2cccc(Cl)c2c(=O)n1-c1ccccc1 [Duvelisib]
Procedure, shortened: as §1

[12] = compound: O=C1CCC(N2C(=O)c3ccccc3C2=O)C(=O)N1 [Thalidomide]
Procedure, shortened: as §1

primary DLBCL patient cells (S076)
viability ([1]; 0.024 µM): 1.05 | viability ([1]; 0.12 µM): 0.954 | viability ([1]; 0.6 µM): 0.927 | viability ([1]; 3 µM): 0.979 | viability ([1]; 15 µM): 1.05 | viability ([2]; 0.024 µM): 1.02 | viability ([2]; 0.12 µM): 1.03 | viability ([2]; 0.6 µM): 0.966 | viability ([2]; 3 µM): 0.911 | viability ([2]; 15 µM): 0.348 | viability ([3]; 0.024 µM): 1.15 | viability ([3]; 0.12 µM): 1.16 | viability ([3]; 0.6 µM): 0.962 | viability ([3]; 3 µM): 1.06 | viability ([3]; 15 µM): 0.534 | viability ([4]; 0.0032 µM): 0.937 | viability ([4]; 0.016 µM): 0.888 | viability ([4]; 0.08 µM): 0.891 | viability ([4]; 0.4 µM): 0.887 | viability ([4]; 2 µM): 0.855 | viability ([5]; 0.024 µM): 1.14 | viability ([5]; 0.12 µM): 1.14 | viability ([5]; 0.6 µM): 0.991 | viability ([5]; 3 µM): 0.647 | viability ([5]; 15 µM): 0.221 | viability ([6]; 0.024 µM): 1.13 | viability ([6]; 0.12 µM): 1.09 | viability ([6]; 0.6 µM): 1.18 | viability ([6]; 3 µM): 1.17 | viability ([6]; 15 µM): 1.03 | viability ([7]; 0.008 µM): 0.991 | viability ([7]; 0.04 µM): 0.912 | viability ([7]; 0.2 µM): 0.796 | viability ([7]; 1 µM): 0.694 | viability ([7]; 5 µM): 0.622 | viability ([8]; 0.032 µM): 0.882 | viability ([8]; 0.16 µM): 1.05 | viability ([8]; 0.8 µM): 0.81 | viability ([8]; 4 µM): 0.901 | viability ([8]; 20 µM): 0.551 | viability ([9]; 0.032 µM): 1.02 | viability ([9]; 0.16 µM): 0.886 | viability ([9]; 0.8 µM): 1.03 | viability ([9]; 4 µM): 0.858 | viability ([9]; 20 µM): 0.431 | viability ([10]; 0.00064 µM): 1.09 | viability ([10]; 0.0032 µM): 1.01 | viability ([10]; 0.016 µM): 0.622 | viability ([10]; 0.08 µM): 0.451 | viability ([10]; 0.4 µM): 0.374 | viability ([11]; 0.0016 µM): 0.884 | viability ([11]; 0.008 µM): 0.839 | viability ([11]; 0.04 µM): 0.732 | viability ([11]; 0.2 µM): 0.718 | viability ([11]; 1 µM): 0.611 | viability ([12]; 0.032 µM): 1.06 | viability ([12]; 0.16 µM): 0.993 | viability ([12]; 0.8 µM): 1.09 | viability ([12]; 4 µM): 1.11 | viability ([12]; 20 µM): 1.06

primary T-NHL patient cells (S058)
viability ([1]; 0.024 µM): 1.03 | viability ([1]; 0.12 µM): 1.09 | viability ([1]; 0.6 µM): 0.875 | viability ([1]; 3 µM): 1.04 | viability ([1]; 15 µM): 1.06 | viability ([2]; 0.024 µM): 0.912 | viability ([2]; 0.12 µM): 0.985 | viability ([2]; 0.6 µM): 0.904 | viability ([2]; 3 µM): 0.875 | viability ([2]; 15 µM): 0.524 | viability ([3]; 0.024 µM): 1.19 | viability ([3]; 0.12 µM): 1.12 | viability ([3]; 0.6 µM): 0.867 | viability ([3]; 3 µM): 1.01 | viability ([3]; 15 µM): 0.486 | viability ([4]; 0.0032 µM): 0.922 | viability ([4]; 0.016 µM): 1.07 | viability ([4]; 0.08 µM): 0.954 | viability ([4]; 0.4 µM): 1.03 | viability ([4]; 2 µM): 0.944 | viability ([5]; 0.024 µM): 1.15 | viability ([5]; 0.12 µM): 1.32 | viability ([5]; 0.6 µM): 1.08 | viability ([5]; 3 µM): 0.899 | viability ([5]; 15 µM): 0.538 | viability ([6]; 0.024 µM): 1.21 | viability ([6]; 0.12 µM): 1.24 | viability ([6]; 0.6 µM): 1.03 | viability ([6]; 3 µM): 1.16 | viability ([6]; 15 µM): 0.95 | viability ([7]; 0.008 µM): 1.04 | viability ([7]; 0.04 µM): 1.1 | viability ([7]; 0.2 µM): 1.01 | viability ([7]; 1 µM): 0.989 | viability ([7]; 5 µM): 0.908 | viability ([8]; 0.032 µM): 0.838 | viability ([8]; 0.16 µM): 1.16 | viability ([8]; 0.8 µM): 0.739 | viability ([8]; 4 µM): 0.654 | viability ([8]; 20 µM): 0.268 | viability ([9]; 0.032 µM): 1.02 | viability ([9]; 0.16 µM): 0.938 | viability ([9]; 0.8 µM): 0.932 | viability ([9]; 4 µM): 0.81 | viability ([9]; 20 µM): 0.262 | viability ([10]; 0.00064 µM): 1.06 | viability ([10]; 0.0032 µM): 1.13 | viability ([10]; 0.016 µM): 0.921 | viability ([10]; 0.08 µM): 0.718 | viability ([10]; 0.4 µM): 0.547 | viability ([11]; 0.0016 µM): 1.1 | viability ([11]; 0.008 µM): 1.04 | viability ([11]; 0.04 µM): 0.923 | viability ([11]; 0.2 µM): 1.03 | viability ([11]; 1 µM): 0.91 | viability ([12]; 0.032 µM): 1.03 | viability ([12]; 0.16 µM): 1.02 | viability ([12]; 0.8 µM): 1.07 | viability ([12]; 4 µM): 1.14 | viability ([12]; 20 µM): 1.02
